Results on 32 compounds are retold here after ChEMBL document CHEMBL5291721, “A preclinical secondary pharmacology resource illuminates target-adverse drug reaction associations of marketed drugs” (Nat Commun, 2023).

One test has as its target D(3) dopamine receptor (Homo sapiens, UniProt P35462).
For the next test, the target named is D(1A) dopamine receptor (Homo sapiens, UniProt P21728).
Test [1] has as its target Beta-1 adrenergic receptor (Homo sapiens, UniProt P08588). The format is functional.
Test [2] addresses T1, 5-hydroxytryptamine receptor 2C (Homo sapiens, UniProt P28335).
T1 sequence (P28335 whole entry): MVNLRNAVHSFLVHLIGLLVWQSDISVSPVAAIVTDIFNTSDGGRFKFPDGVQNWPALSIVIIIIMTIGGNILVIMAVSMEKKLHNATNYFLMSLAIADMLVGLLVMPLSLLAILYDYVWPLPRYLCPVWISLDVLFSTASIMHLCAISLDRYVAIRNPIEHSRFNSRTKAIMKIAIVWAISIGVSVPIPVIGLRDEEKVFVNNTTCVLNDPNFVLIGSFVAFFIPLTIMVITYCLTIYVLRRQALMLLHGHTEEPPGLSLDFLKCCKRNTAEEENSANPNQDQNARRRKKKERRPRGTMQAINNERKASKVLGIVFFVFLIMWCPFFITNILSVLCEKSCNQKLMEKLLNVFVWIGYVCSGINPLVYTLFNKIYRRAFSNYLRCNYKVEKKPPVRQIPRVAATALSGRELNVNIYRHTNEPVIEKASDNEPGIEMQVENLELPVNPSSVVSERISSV

Test [3] concerns the target Gamma-aminobutyric acid receptor subunit alpha-1 (Rattus norvegicus, UniProt P62813). The test is classed as functional.
The target in test [4] is T2, Equilibrative nucleoside transporter 1 (Homo sapiens, UniProt Q99808).
T2 sequence (Q99808 whole entry): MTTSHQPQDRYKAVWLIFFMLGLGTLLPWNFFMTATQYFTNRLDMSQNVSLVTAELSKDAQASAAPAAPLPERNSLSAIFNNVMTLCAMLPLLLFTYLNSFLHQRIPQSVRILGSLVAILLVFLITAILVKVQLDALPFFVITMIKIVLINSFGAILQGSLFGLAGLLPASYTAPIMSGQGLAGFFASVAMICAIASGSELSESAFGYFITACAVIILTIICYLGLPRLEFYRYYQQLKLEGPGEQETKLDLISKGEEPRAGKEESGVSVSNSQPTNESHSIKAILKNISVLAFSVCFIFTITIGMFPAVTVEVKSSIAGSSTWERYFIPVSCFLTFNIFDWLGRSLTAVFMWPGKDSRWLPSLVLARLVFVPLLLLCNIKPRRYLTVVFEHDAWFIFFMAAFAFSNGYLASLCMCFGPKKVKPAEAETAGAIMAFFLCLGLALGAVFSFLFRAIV

Another test addresses T3, Adenosine receptor A3 (Homo sapiens, UniProt P0DMS8).
T3 sequence (P0DMS8 whole entry): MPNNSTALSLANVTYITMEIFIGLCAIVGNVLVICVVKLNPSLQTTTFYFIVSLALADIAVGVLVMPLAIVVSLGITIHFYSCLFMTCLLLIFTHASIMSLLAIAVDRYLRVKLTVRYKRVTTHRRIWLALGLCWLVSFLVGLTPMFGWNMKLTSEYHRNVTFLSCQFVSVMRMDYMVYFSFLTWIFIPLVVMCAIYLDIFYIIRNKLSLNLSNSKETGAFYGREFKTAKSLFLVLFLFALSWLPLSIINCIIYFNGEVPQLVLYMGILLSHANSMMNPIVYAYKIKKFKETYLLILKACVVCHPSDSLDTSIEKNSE

In test [5] the target is T4, Alpha-2A adrenergic receptor (Homo sapiens, UniProt P08913).
T4 sequence (P08913 whole entry): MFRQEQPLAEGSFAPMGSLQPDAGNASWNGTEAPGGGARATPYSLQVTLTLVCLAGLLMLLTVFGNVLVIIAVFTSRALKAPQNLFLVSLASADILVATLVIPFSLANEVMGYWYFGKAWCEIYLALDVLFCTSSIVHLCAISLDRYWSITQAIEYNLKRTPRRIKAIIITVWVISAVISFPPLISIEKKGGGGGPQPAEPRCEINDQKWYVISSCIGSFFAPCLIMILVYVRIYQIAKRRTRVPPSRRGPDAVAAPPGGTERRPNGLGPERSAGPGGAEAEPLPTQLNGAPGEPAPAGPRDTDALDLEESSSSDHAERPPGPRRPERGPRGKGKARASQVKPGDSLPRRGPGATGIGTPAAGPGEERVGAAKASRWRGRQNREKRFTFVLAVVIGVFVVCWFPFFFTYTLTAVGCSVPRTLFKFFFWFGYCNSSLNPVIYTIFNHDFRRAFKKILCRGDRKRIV
The test is classed as functional, cell-based.

The target of test [6] is T5, 5-hydroxytryptamine receptor 1A (Homo sapiens, UniProt P08908).
T5 sequence (P08908 whole entry): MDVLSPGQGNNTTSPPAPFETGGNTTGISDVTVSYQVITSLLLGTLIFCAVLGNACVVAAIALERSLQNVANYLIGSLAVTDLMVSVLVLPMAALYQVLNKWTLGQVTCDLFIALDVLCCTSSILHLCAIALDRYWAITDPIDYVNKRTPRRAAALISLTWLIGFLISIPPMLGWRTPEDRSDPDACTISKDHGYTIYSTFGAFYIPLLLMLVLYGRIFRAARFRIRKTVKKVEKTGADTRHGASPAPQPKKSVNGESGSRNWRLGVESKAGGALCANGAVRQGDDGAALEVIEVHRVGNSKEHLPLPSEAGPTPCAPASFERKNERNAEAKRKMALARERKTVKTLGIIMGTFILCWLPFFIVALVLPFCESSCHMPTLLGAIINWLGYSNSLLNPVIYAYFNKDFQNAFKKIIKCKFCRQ
The format is functional, cell-based.
Note: assay procedure not described here.

Sequence of D(1A) dopamine receptor (P21728 whole entry): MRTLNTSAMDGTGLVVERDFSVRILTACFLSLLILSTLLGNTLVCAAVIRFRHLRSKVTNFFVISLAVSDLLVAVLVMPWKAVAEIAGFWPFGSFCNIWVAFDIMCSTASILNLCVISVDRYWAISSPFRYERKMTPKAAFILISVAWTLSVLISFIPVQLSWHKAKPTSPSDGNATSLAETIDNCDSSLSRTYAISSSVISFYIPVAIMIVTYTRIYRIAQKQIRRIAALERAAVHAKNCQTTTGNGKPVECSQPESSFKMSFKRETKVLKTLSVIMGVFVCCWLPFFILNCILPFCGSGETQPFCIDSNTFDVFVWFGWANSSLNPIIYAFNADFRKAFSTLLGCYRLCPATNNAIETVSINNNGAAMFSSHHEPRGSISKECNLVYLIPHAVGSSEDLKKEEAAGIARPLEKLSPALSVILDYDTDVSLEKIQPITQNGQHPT
Sequence of D(3) dopamine receptor (P35462 whole entry): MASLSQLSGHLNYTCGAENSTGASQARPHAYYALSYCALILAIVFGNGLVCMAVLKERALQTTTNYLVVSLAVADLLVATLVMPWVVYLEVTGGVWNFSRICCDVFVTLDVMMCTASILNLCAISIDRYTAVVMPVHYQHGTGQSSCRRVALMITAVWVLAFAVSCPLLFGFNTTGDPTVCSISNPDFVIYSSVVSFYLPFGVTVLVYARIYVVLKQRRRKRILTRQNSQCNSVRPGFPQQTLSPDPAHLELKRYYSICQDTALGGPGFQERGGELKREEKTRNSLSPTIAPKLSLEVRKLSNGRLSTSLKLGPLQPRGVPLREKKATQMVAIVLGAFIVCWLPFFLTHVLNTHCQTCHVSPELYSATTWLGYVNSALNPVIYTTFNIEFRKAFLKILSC
Sequence of Gamma-aminobutyric acid receptor subunit alpha-1 (P62813 whole entry): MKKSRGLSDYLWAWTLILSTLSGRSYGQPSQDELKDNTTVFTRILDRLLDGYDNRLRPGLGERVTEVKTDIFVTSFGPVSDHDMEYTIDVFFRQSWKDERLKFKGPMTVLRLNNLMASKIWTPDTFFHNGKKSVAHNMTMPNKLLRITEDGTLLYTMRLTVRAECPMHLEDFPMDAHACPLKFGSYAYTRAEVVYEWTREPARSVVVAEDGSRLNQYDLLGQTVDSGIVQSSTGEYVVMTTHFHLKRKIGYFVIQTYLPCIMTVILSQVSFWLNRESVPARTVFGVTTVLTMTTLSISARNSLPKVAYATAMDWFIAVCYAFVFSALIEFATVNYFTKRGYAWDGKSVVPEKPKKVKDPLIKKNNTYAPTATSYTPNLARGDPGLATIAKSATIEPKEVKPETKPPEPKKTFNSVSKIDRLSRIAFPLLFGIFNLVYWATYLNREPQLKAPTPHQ
Sequence of Beta-1 adrenergic receptor (P08588 whole entry): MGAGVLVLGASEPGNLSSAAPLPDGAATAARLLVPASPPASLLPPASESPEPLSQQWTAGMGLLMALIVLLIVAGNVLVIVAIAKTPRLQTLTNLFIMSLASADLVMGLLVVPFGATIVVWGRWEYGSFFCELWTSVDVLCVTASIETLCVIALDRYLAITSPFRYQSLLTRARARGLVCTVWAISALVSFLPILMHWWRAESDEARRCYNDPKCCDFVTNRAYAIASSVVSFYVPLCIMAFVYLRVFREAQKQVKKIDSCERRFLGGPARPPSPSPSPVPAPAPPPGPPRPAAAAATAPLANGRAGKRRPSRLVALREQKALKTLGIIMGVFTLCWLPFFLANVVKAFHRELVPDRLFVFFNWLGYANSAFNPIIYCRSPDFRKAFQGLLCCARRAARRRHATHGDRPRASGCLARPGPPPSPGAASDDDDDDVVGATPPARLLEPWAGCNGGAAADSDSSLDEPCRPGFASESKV

In general, AC50 refers to the midpoint of the concentration-response curve, whichever way the signal moves. Lower therefore signals greater potency. In the case of `CC(COc1ccccc1)NC(C)C(O)c1ccc(O)cc1` (stereo unspecified) [ISOXSUPRINE], the AC50 came out at 0.037 µM on D(3) dopamine receptor and 9.44 µM at D(1A) dopamine receptor.

As for `Clc1ccc(C(Cn2ccnc2)OCc2csc3c(Cl)cccc23)c(Cl)c1` (stereo unspecified) [SERTACONAZOLE], the half-maximal activity concentration (AC50) was found to be 1.78 µM at D(3) dopamine receptor and 5.39 µM at D(1A) dopamine receptor.

Take `Cc1ccc(S(=O)(=O)NC(=O)NC2CCCCC2)cc1` [GLYCYCLAMIDE]: the AC50 on D(3) dopamine receptor and on D(1A) dopamine receptor was above 30 µM each time.

For the compound `N#Cc1ccc(Oc2ccc3c(c2)COB3O)cc1` [CRISABOROLE], the AC50 at D(3) dopamine receptor and at D(1A) dopamine receptor was above 30 µM each time.

On to `N[C@@H](Cc1ccccc1)C(=O)O` [PHENYLALANINE], for which the AC50 at D(3) dopamine receptor and at D(1A) dopamine receptor was above 30 µM throughout.

For the compound `O=C(CCC/C=C\C[C@@H]1[C@@H](CC[C@@H](O)CCc2ccccc2)[C@H](O)C[C@@H]1O)OCCCCO[N+](=O)[O-]` [LATANOPROSTENE BUNOD], the AC50 at D(3) dopamine receptor and at D(1A) dopamine receptor was above 30 µM throughout.

Consider `CC(=O)O[C@]1(C(C)=O)CC[C@H]2[C@@H]3C=C(Cl)C4=CC(=O)[C@@H]5C[C@@H]5[C@]4(C)[C@H]3CC[C@@]21C` [CYPROTERONE ACETATE], for which the AC50 in test [1] is above 10 µM; at D(3) dopamine receptor, above 30 µM; in test [2], above 30 µM; in [3], above 10 µM; in test [4] it was above 30 µM; at D(1A) dopamine receptor, above 30 µM. The AC50 on Adenosine receptor A3 is above 30 µM.

As for `COC(=O)C[C@](O)(CCCC(C)(C)O)C(=O)O[C@@H]1C(OC)=C[C@]23CCCN2CCc2cc4c(cc2[C@H]13)OCO4` [OMACETAXINE MEPESUCCINATE], the AC50 on D(3) dopamine receptor and on D(1A) dopamine receptor was above 30 µM in each case.

In the case of `NC(=O)[C@@H]1CC[C@@H]2CN1C(=O)N2OS(=O)(=O)O` [AVIBACTAM], the AC50 on D(3) dopamine receptor and on D(1A) dopamine receptor was above 30 µM each time.

Consider `CC(=O)[C@H]1CC[C@H]2[C@@H]3C=CC4=CC(=O)CC[C@@]4(C)[C@@H]3CC[C@]12C` [DYDROGESTERONE], for which the AC50 on D(3) dopamine receptor and on D(1A) dopamine receptor was above 30 µM each time.

As for `Cc1cn([C@H]2O[C@@H](CO)[C@H](O)[C@H]2F)c(=O)[nH]c1=O` [CLEVUDINE], the concentration at half-maximal activity (AC50) on D(3) dopamine receptor and on D(1A) dopamine receptor was above 30 µM in each case.

As to `Cc1oc(=O)oc1COC(=O)[C@@H]1N2C(=O)[C@@H](NC(=O)[C@H](N)c3ccccc3)[C@H]2SC1(C)C` [LENAMPICILLIN], the AC50 at D(3) dopamine receptor and on D(1A) dopamine receptor was above 30 µM in each case.

With `CC(C)(C)NC(=O)N[C@H](C(=O)N1C[C@H]2[C@@H]([C@H]1C(=O)NC(CC1CCC1)C(=O)C(N)=O)C2(C)C)C(C)(C)C` (stereo partly specified) [BOCEPREVIR], the AC50 at D(3) dopamine receptor and on D(1A) dopamine receptor was above 30 µM in each case.

As to `COc1ccc2c(C(=S)N(C)CC(=O)O)cccc2c1C(F)(F)F` [TOLRESTAT], the AC50 at D(3) dopamine receptor and at D(1A) dopamine receptor was above 30 µM in each case.

As for `CCCSc1nc(N[C@@H]2C[C@H]2c2ccc(F)c(F)c2)c2nnn([C@@H]3C[C@H](OCCO)[C@@H](O)[C@H]3O)c2n1` [TICAGRELOR], the results for the AC50 (at D(3) dopamine receptor; in test [4]; at D(1A) dopamine receptor) were 20.5 µM, 0.365 µM and 14.9 µM, respectively.

Regarding `CC[N+](C)(CC)CCOC(=O)C(O)(c1ccccc1)C1CCCCC1` (stereo unspecified) [OXYPHENONIUM], the AC50 on D(3) dopamine receptor and on D(1A) dopamine receptor was above 30 µM in each case.

On to `NNCCc1ccccc1` [PHENELZINE], for which the half-maximal activity concentration (AC50) at D(3) dopamine receptor and on D(1A) dopamine receptor was above 30 µM each time.

Regarding `CC(=O)O[C@H]1Cc2ccccc2N(C(N)=O)c2ccccc21` [ESLICARBAZEPINE ACETATE], the AC50 on D(3) dopamine receptor and at D(1A) dopamine receptor was above 30 µM in each case.

In the case of `COc1cc(C)c2c(Oc3cccc(C(F)(F)F)c3)c(OC)cc(NC(C)CCCN)c2n1` (stereo unspecified) [TAFENOQUINE], the AC50 at D(3) dopamine receptor is 2.57 µM; on D(1A) dopamine receptor it was 16.4 µM.

For `CC1(CCN2CCCCC2)C(=O)CCc2ccccc21` (stereo unspecified) [NEPINALONE], the AC50 at D(3) dopamine receptor and at D(1A) dopamine receptor was above 30 µM throughout.

In the case of `C=C1CC[C@H](O)C/C1=C/C=C1\CCC[C@]2(C)[C@@H]([C@H](C)CCCC(C)C)CC[C@@H]12` [CHOLECALCIFEROL], the figures for the AC50 on D(3) dopamine receptor and on D(1A) dopamine receptor were 15.6 µM and above 30 µM, respectively.

Take `Cc1ccc(C(=O)C(C)CN2CCCCC2)cc1` (stereo unspecified) [TOLPERISONE]: the figures for the AC50 at D(3) dopamine receptor and on D(1A) dopamine receptor were 2.52 µM and above 30 µM, respectively.

For `CCC[C@H](N[C@@H](C)C(=O)N1[C@H](C(=O)O)C[C@@H]2CCCC[C@@H]21)C(=O)OCC` [PERINDOPRIL], the AC50 at D(3) dopamine receptor and on D(1A) dopamine receptor was above 30 µM throughout.

As to `CC(O)(P(=O)(O)O)P(=O)(O)O` [ETIDRONIC ACID], the AC50 on D(3) dopamine receptor and at D(1A) dopamine receptor was above 30 µM throughout.

As for `COc1ccc(OC)c(C(O)C(C)N)c1` (stereo unspecified) [METHOXAMINE], the AC50 on D(3) dopamine receptor and at D(1A) dopamine receptor was above 30 µM each time.

For the compound `NC[C@H]1CC[C@H](C(=O)Oc2ccc(CCC(=O)O)cc2)CC1` [CETRAXATE], the AC50 (in test [5]; at D(3) dopamine receptor; in test [2]; in [6]; in test [3]; at D(1A) dopamine receptor) was above 30 µM throughout.

`CC1(C)S[C@@H]2[C@H](/N=C/N3CCCCCC3)C(=O)N2[C@H]1C(=O)O` [AMDINOCILLIN]: the AC50 at D(3) dopamine receptor and on D(1A) dopamine receptor was above 30 µM each time.

On to `CN1CCCN(C(c2ccccc2)c2ccc(Cl)cc2)CC1` (stereo unspecified) [HOMOCHLORCYCLIZINE], for which the AC50 stood at 0.0721 µM at D(3) dopamine receptor and 2.4 µM on D(1A) dopamine receptor.

As for `C[C@H](N[C@@H](CCc1ccccc1)C(=O)O)C(=O)N1Cc2ccccc2C[C@H]1C(=O)O`, the AC50 on D(3) dopamine receptor and on D(1A) dopamine receptor was above 30 µM each time.

Turning to `CCCn1cnc2c1c(=O)n(CCCCC(C)=O)c(=O)n2C` [PROPENTOFYLLINE], the AC50 at D(3) dopamine receptor and at D(1A) dopamine receptor was above 30 µM throughout.

Regarding `Cc1cc2c(cc1S(N)(=O)=O)S(=O)(=O)CCC2`, the AC50 on D(3) dopamine receptor and on D(1A) dopamine receptor was above 30 µM each time.

Turning to `CC(O)(CS(=O)(=O)c1ccc(F)cc1)C(=O)Nc1ccc(C#N)c(C(F)(F)F)c1` (stereo unspecified) [BICALUTAMIDE], the AC50 in test [1] is above 30 µM; in test [5], above 10 µM; on D(3) dopamine receptor it was above 30 µM; in test [2] it was above 30 µM; in test [6], above 10 µM; in test [3] it was above 10 µM. In addition, the AC50 (in [4]; at D(1A) dopamine receptor; on Adenosine receptor A3) was above 30 µM each time.
